Data published in patent US9127003B2, “2-(azaindol-2-yl)benzimidazoles as PAD4 inhibitors” (Glaxo Group Limited, priority 2012, dated 2015).
Values joined by “and” are separate entries in the source; they are usually repeats but may differ in a detail not shown here. Equal entries are not always repeated. Structures can show the parent of a compound that is named as a salt.

Biological target: T1, Recombinant human PAD4 (residues 1-663) (Homo sapiens, UniProt Q9UM07)
T1 construct: Recombinant human PAD4 (residues 1-663); GST (N, cleaved yes); made in house; host or cells: E. coli
T1 sequence (Q9UM07 whole entry, the tested form may be a part): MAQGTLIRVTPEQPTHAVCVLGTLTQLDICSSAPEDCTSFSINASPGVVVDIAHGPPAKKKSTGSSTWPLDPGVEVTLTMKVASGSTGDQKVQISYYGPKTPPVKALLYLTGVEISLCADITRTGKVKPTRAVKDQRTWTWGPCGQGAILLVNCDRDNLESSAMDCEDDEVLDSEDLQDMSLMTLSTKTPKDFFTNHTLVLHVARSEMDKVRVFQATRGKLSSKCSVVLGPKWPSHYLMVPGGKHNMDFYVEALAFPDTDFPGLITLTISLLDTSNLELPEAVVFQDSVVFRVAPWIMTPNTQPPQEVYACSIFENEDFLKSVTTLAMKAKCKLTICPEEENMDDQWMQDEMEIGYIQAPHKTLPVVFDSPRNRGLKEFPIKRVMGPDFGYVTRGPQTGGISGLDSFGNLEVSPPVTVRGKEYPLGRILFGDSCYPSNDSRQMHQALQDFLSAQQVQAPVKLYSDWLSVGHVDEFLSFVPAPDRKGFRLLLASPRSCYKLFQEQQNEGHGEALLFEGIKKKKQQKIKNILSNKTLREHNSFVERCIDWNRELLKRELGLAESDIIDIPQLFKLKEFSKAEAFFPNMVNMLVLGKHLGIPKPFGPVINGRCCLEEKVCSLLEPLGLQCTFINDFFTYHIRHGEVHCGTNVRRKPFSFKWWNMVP
Experiment: PAD4 enzyme assay (NH3 release, BAEE substrate, fluorescence)
Format: biochemical
Conditions: PAD4 enzyme assay above (Conditions A or B) or similar assays; read-out: mean pIC50 (converted)
Protocol: Recombinant human PAD4 (residues 1-663) was expressed in E. coli as an N-terminal GST-tagged fusion protein. During purification of the protein, the GST tag was removed by cleavage with PreScission Protease (GE Healthcare). Activity of the final product was determined using a FLINT NH3 release assay.
(§1) 8 μl of PAD4 enzyme diluted to an assay concentration of 75 nm in assay buffer (a).: (100 mM HEPES, 50 mM NaCl, 2 mM DTT and 0.6 mg/mIBSA pH 8), or in assay buffer (b).: (100 mM HEPES, 50 mM NaCl, 2 mM DTT, 7.5% glycerol and 1.5 mM CHAPS pH 8), and added to wells containing 0.1 μl of various concentrations of compound or DMSO vehicle (0.8% final) in a Greiner high volume 384 well black plate. Following 30 mins pre-incubation at room temperature, the reaction was initiated by the addition of 4 μl of substrate buffer containing 3 mM N-a-benzoyl-L-arginine ethyl ester (BAEE), 100 mM HEPES, 50 mM NaCl, 600 uM CaCl2 (2H2O) and 2 mM DTT, pH 8.0. The reaction was stopped after 100 mins with the addition of 38 μl stop/detection buffer containing 50 mM EDTA, 2.6 mM phthalaldehyde and 2.6 mM DTT. Assay incubated at room temperature for 90 mins before measuring fluorescent signal (λex 413/λem 476) on an Envision plate reader (Perkin Elmer Life Sciences, Waltham, Mass., USA)
as §1, with “of 30 nM” for “of 75 nm”, “buffer” for “buffer (a).:”, “mg/mIBSA” for “mg/mIBSA pH 8), or in assay buffer (b).: (100 mM HEPES, 50 mM NaCl, 2 mM DTT, 7.5% glycerol and 1.5 mM CHAPS”, “after 60” for “after 100”, “(λex 405/λem 460)” for “(λex 413/λem 476)”

| Structure (SMILES) | IC50 |
| --- | --- |
| COc1cc(C(=O)N2C[C@@H](N)CC[C@H]2C)cc2nc(-c3cc4cccnc4n3CC3CC3)n(C)c12 (single isomer, unassigned) [Example 23, ((cis)-5-Amino-2-methylpiperidin-1-yl)(2-(1-(cyclopropylmethyl)-1H-pyrrolo[2,3-b]pyridin-2-yl)-7-methoxy-1-methyl-1H-benzo[d]imidazol-5-yl)methanone, hydrochloride] | 0.0316 to 10 µM |
| COc1cc(C(=O)N2C[C@H](N)CC[C@@H]2C)cc2nc(-c3cc4cccnc4n3CC3CC3)n(C)c12 (single isomer, unassigned) [Example 24, ((cis)-5-Amino-2-methylpiperidin-1-yl)(2-(1-(cyclopropylmethyl)-1H-pyrrolo[2,3-b]pyridin-2-yl)-7-methoxy-1-methyl-1H-benzo[d]imidazol-5-yl)methanone, hydrochloride] | 0.0316 to 10 µM |
| CCn1c(-c2nc3cc(C(=O)N4CCCC(N)C4)ccc3n2C)cc2cnccc21 (centres unmarked) [Example 1, 1-{[2-(1-Ethyl-1H-pyrrolo[3,2-c]pyridin-2-yl)-1-methyl-1H-benzimidazol-5-yl]carbonyl}-3-piperidinamine] | 0.0316 to 10 µM |
| CCn1c(-c2nc3cc(C(=O)N4CCC[C@@H](N)C4)ccc3n2C)cc2cccnc21 [Example 2A, (R)-(3-Aminopiperidin-1-yl)(2-(1-ethyl-1H-pyrrolo[2,3-b]pyridin-2-yl)-1-methyl-1H-benzo[d]imidazol-5-yl)methanone] | 0.0316 to 10 µM |
| CCn1c(-c2nc3cc(C(=O)N4CCC[C@@H](N)C4)ccc3n2C)cc2ccncc21 [Example 3, (R)-(3-Aminopiperidin-1-yl)(2-(1-ethyl-1H-pyrrolo[2,3-c]pyridin-2-yl)-1-methyl-1H-benzo[d]imidazol-5-yl)methanone] | 0.0316 to 10 µM |
| Cn1c(-c2cc3cccnc3n2CC(F)(F)F)nc2cc(C(=O)N3CCC[C@@H](N)C3)ccc21 [Example 4A, (R)-(3-Aminopiperidin-1-yl)(1-methyl-2-(1-(2,2,2-trifluoroethyl)-1H-pyrrolo[2,3-b]-pyridin-2-yl)-1H-benzo[d]imidazol-5-yl)methanone] | 0.0316 to 10 µM |
| Cn1c(-c2cc3cccnc3n2CC2CC2)nc2cc(C(=O)N3CCC[C@@H](N)C3)ccc21 [Example 5B, (R)-(3-Aminopiperidin-1-yl)(2-(1-(cyclopropylmethyl)-1H-pyrrolo[2,3-b]pyridin-2-yl)-1-methyl-1H-benzo[d]imidazol-5-yl)methanone, hydrochloride] | 0.0316 to 10 µM and 0.2 µM |
| CCn1c(-c2nc3cc(C(=O)N4CCC[C@@H](N)C4)ccc3n2C)cc2cc(OC)cnc21 [Example 6, (R)-(3-Aminopiperidin-1-yl)(2-(1-ethyl-5-methoxy-1H-pyrrolo[2,3-b]pyridin-2-yl)-1-methyl-1H-benzo[d]imidazol-5-yl)methanone] | 0.0316 to 10 µM |
| CCn1c(-c2nc3cc(C(=O)N4CCC[C@@H](N)C4)ccc3n2C)cc2cc(OC)ncc21 [Example 7, (R)-(3-Aminopiperidin-1-yl)(2-(1-ethyl-5-methoxy-1H-pyrrolo[2,3-c]pyridin-2-yl)-1-methyl-1H-benzo[d]imidazol-5-yl)methanone] | 0.0316 to 10 µM |
| CCn1c(-c2nc3cc(C(=O)N4CCC[C@@H](N)C4)ccc3n2C)cc2cc(O)cnc21 [Example 8, 2-(5-{[(3R)-3-Amino-1-piperidinyl]carbonyl}-1-methyl-1H-benzimidazol-2-yl)-1-ethyl-1H-pyrrolo[2,3-b]pyridin-5-ol] | 0.0316 to 10 µM |
| CCn1c(-c2nc3cc(C(=O)N4CCC[C@@H](N)C4)cc(OC)c3n2C)cc2cccnc21 [Example 9A, (R)-(3-Aminopiperidin-1-yl)(2-(1-ethyl-1H-pyrrolo[2,3-b]pyridin-2-yl)-7-methoxy-1-methyl-1H-benzo[d]imidazol-5-yl)methanone] | 0.0316 to 10 µM |
| COc1cc(C(=O)N2CCC[C@@H](N)C2)cc2nc(-c3cc4cccnc4n3CC3CC3)n(C)c12 [Example 10B, (R)-(3-Aminopiperidin-1-yl)(2-(1-(cyclopropylmethyl)-1H-pyrrolo[2,3-b]pyridin-2-yl)-7-methoxy-1-methyl-1H-benzo[d]imidazol-5-yl)methanone, hydrochloride] | 0.0316 to 10 µM and 0.0501 µM |
| COc1cc(C(=O)N2CCC[C@@H](N)C2)cc2nc(-c3cc4cccnc4n3CC(F)(F)F)n(C)c12 [Example 11A, (R)-(3-Aminopiperidin-1-yl)(7-methoxy-1-methyl-2-(1-(2,2,2-trifluoroethyl)-1H-pyrrolo[2,3-b]pyridin-2-yl)-1H-benzo[d]imidazol-5-yl)methanone] | 0.0316 to 10 µM |
| CCn1c(-c2nc3cc(C(=O)N4CCCC(N)C4)ccc3n2C)cc2cccnc21 (centres unmarked) [Example 12, (3-Aminopiperidin-1-yl)(2-(1-ethyl-1H-pyrrolo[2,3-b]pyridin-2-yl)-1-methyl-1H-benzo[d]imidazol-5-yl)methanone] | 0.0316 to 10 µM |
| CCn1c(-c2nc3cc(C(=O)N4CCC[C@@H](N)C4)cc(OC(F)(F)F)c3n2C)cc2cccnc21 [Example 15, (R)-(3-Aminopiperidin-1-yl)(2-(1-ethyl-1H-pyrrolo[2,3-b]pyridin-2-yl)-1-methyl-7-(trifluoromethoxy)-1H-benzo[d]imidazol-5-yl)methanone] | 0.0316 to 10 µM |
| CCC(C)Cn1c(-c2nc3cc(C(=O)N4CCC[C@@H](N)C4)cc(OC)c3n2C)cc2cccnc21 (stereo partly drawn) [Example 17, ((R)-3-Aminopiperidin-1-yl)(7-methoxy-1-methyl-2-(1-(2-methylbutyl)-1H-pyrrolo[2,3-b]pyridin-2-yl)-1H-benzo[d]imidazol-5-yl)methanone] | 0.0316 to 10 µM |
| CCn1c(-c2nc3cc(C(=O)N4CCC[C@@H](N)C4)cc(OC)c3n2CCOC)cc2cccnc21 [Example 18, (R)-(3-Aminopiperidin-1-yl)(2-(1-ethyl-1H-pyrrolo[2,34]pyridin-2-yl)-7-methoxy-1-(2-methoxyethyl)-1H-benzo[d]imidazol-5-yl)methanone, hydrochloride] | 0.0316 to 10 µM |
| CCn1c(-c2nc3cc(C(=O)N4CCC[C@@H](N)C4)cc(OC)c3n2CC(C)C)cc2cccnc21 [Example 20, (R)-(3-Aminopiperidin-1-yl)(2-(1-ethyl-1H-pyrrolo[2,3-b]pyridin-2-yl)-1-isobutyl-7-methoxy-1H-benzo[d]imidazol-5-yl)methanone, hydrochloride] | 0.0316 to 10 µM |
| COc1cc(C(=O)N2CCC[C@@H](N)C2)cc2nc(-c3cc4cccnc4n3CC(C)(C)OC)n(C)c12 [Example 21, (R)-(3-Aminopiperidin-1-yl)(7-methoxy-2-(1-(2-methoxy-2-methylpropyl)-1H-pyrrolo[2,3-b]pyridin-2-yl)-1-methyl-1H-benzo[d]imidazol-5-yl)methanone] | 0.0316 to 10 µM |

Biological target: T2, Recombinant human PAD2 (residues 1-665) (Homo sapiens, UniProt Q9Y2J8)
T2 construct: Recombinant human PAD2 (residues 1-665); 6His-FLAG (N); made in house; host or cells: baculovirus-infected Sf9 insect cells
T2 sequence (Q9Y2J8 whole entry, the tested form may be a part): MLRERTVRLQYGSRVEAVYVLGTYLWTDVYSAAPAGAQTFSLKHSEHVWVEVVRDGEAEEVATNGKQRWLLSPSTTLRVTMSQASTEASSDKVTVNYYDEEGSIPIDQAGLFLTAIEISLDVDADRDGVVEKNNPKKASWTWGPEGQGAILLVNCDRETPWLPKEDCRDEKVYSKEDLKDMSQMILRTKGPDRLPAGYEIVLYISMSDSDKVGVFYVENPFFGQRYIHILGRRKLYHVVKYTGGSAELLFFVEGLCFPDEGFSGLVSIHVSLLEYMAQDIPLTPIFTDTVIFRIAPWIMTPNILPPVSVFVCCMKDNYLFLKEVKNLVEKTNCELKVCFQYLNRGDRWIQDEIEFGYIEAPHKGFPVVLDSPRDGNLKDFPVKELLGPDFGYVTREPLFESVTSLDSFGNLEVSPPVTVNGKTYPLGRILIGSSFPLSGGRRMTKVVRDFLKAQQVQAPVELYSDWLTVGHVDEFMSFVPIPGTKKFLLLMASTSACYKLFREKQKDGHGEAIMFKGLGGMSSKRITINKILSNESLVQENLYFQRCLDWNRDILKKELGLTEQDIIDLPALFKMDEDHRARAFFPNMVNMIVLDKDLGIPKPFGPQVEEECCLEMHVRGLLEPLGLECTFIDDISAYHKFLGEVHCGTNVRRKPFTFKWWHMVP
Experiment: PAD2 enzyme assay (NH3 release, BAEE substrate, fluorescence)
Format: biochemical
Conditions: PAD2 enzyme assay above or similar assays; read-out: mean pIC50 (converted)
Protocol: Recombinant human PAD2 (residues 1-665) was expressed in baculovirus-infected Sf9 insect cells as an N-terminal 6His-FLAG-tagged fusion protein. Activity of the final product was determined using a FLINT NH3 release assay.
8 μl of PAD2 enzyme diluted to an assay concentration of 30 nM in assay buffer (100 mM HEPES, 50 mM NaCl, 2 mM DTT, 7.5% glycerol and 1.5 mM CHAPS pH 8), and added to wells containing 0.1 μl of various concentrations of compound or DMSO vehicle (0.8% final) in a Greiner high volume 384 well black plate. Following 30 mins pre-incubation at room temperature, the reaction was initiated by the addition of 4 μl of substrate buffer containing 180 uM N-a-benzoyl-L-arginine ethyl ester (BAEE), 100 mM HEPES, 50 mM NaCl, 240 uM CaCl2 (2H2O) and 2 mM DTT, pH 8.0. The reaction was stopped after 90 mins with the addition of 38 μl stop/detection buffer containing 50 mM EDTA, 2.6 mM phthalaldehyde and 2.6 mM DTT. Assay incubated at room temperature for 90 mins before measuring fluorescent signal (λex 405/λem 460) on an Envision plate reader (Perkin Elmer Life Sciences, Waltham, Mass., USA)

| Structure (SMILES) | IC50 |
| --- | --- |
| CCn1c(-c2nc3cc(C(=O)N4CCC[C@@H](N)C4)ccc3n2C)cc2cccnc21 [Example 2B, (R)-(3-Aminopiperidin-1-yl)(2-(1-ethyl-1H-pyrrolo[2,3-b]pyridin-2-yl)-1-methyl-1H-benzo[d]imidazol-5-ylmethanone hydrochloride] | 63.1 to 79.4 µM |
| Cn1c(-c2cc3cccnc3n2CC2CC2)nc2cc(C(=O)N3CCC[C@@H](N)C3)ccc21 [Example 5B, (R)-(3-Aminopiperidin-1-yl)(2-(1-(cyclopropylmethyl)-1H-pyrrolo[2,3-b]pyridin-2-yl)-1-methyl-1H-benzo[d]imidazol-5-yl)methanone, hydrochloride] | 63.1 to 79.4 µM and > 79.4 µM |
| CCn1c(-c2nc3cc(C(=O)N4CCC[C@@H](N)C4)cc(OC)c3n2C)cc2cccnc21 [Example 9B, (R)-(3-Aminopiperidin-1-yl)(2-(1-ethyl-1H-pyrrolo[2,3-b]pyridin-2-yl)-7-methoxy-1-methyl-1H-benzo[d]imidazol-5-yl)methanone, hydrochloride] | 63.1 to 79.4 µM and > 79.4 µM |
| COc1cc(C(=O)N2CCC[C@@H](N)C2)cc2nc(-c3cc4cccnc4n3CC3CC3)n(C)c12 [Example 10B, (R)-(3-Aminopiperidin-1-yl)(2-(1-(cyclopropylmethyl)-1H-pyrrolo[2,3-b]pyridin-2-yl)-7-methoxy-1-methyl-1H-benzo[d]imidazol-5-yl)methanone, hydrochloride] | 63.1 to 79.4 µM and > 79.4 µM |
